What was measured:
Test in all cases: selective drug sensitivity score (sDSS, relative to normal bone marrow) (sDSS (score)); higher = more potent and effective on the cell line relative to normal bone marrow cells
Details in all cases: 72 h
ALL-PO = tested on: ALL-PO
CCRF-CEM = tested on: CCRF-CEM
COG-LL-319h = tested on: COG-LL-319h
COG-LL-394h = tested on: COG-LL-394h
DND-41 = tested on: DND-41
HAL-01 = tested on: HAL-01
KASUMI-10 = tested on: KASUMI-10
KASUMI-2 = tested on: KASUMI-2
LC4-1 = tested on: LC4-1
MHH-CALL-2 = tested on: MHH-CALL-2
MHH-CALL-3 = tested on: MHH-CALL-3
MN-60 = tested on: MN-60
MOLT-14 = tested on: MOLT-14
MOLT-4 = tested on: MOLT-4
NALM-6 = tested on: NALM-6
P12-ICHIKAWA = tested on: P12-ICHIKAWA
PF-382 = tested on: PF-382
REH = tested on: REH
RPMI-8402 = tested on: RPMI-8402
SEM cells = tested on: SEM cells
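Further: ALL cell lines in 384-well plates, five doses spanning 10,000-fold, each plate scaled between vehicle and 100 µmol/L benzalkonium chloride controls, sDSS an adapted area-under-curve metric.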

Structure (SMILES) | selective drug sensitivity score (ALL-PO) | selective drug sensitivity score (CCRF-CEM) | selective drug sensitivity score (COG-LL-319h) | selective drug sensitivity score (COG-LL-394h) | selective drug sensitivity score (DND-41) | selective drug sensitivity score (HAL-01) | selective drug sensitivity score (KASUMI-10) | selective drug sensitivity score (KASUMI-2) | selective drug sensitivity score (LC4-1) | selective drug sensitivity score (MHH-CALL-2) | selective drug sensitivity score (MHH-CALL-3) | selective drug sensitivity score (MN-60) | selective drug sensitivity score (MOLT-14) | selective drug sensitivity score (MOLT-4) | selective drug sensitivity score (NALM-6) | selective drug sensitivity score (P12-ICHIKAWA) | selective drug sensitivity score (PF-382) | selective drug sensitivity score (REH) | selective drug sensitivity score (RPMI-8402) | selective drug sensitivity score (SEM cells)
COc1cc2nccc(Oc3ccc(NC(=O)C4(C(=O)Nc5ccc(F)cc5)CC4)cc3)c2cc1OC [Cabozantinib] (top concentration 1000 nM) | 10.4 | -3.62 | -2.22 | 0.18 | -3.62 | 3.88 | 14.1 | -3.62 | -3.02 | -3.62 | -3.62 | -3.62 | 1.28 | -0.92 | -2.82 | -3.62 | -3.62 | 4.58 | -1.62 | 17.6
CCCCCOC(=O)Nc1nc(=O)n([C@@H]2O[C@H](C)[C@@H](O)[C@H]2O)cc1F [Capecitabine] (top concentration 10000 nM) | -0.06 | -0.06 | -0.06 | -0.06 | 1.84 | 0.44 | -0.06 | -0.06 | -0.06 | 1.04 | -0.06 | -0.06 | -0.06 | -0.06 | -0.06 | -0.06 | -0.06 | -0.06 | -0.06 | 0.04
Nc1nc(Cl)nc2c1ncn2[C@H]1C[C@H](O)[C@@H](CO)O1 [Cladribine] (top concentration 1000 nM) | 8.66 | 5.16 | 7.76 | -16 | 1.16 | -0.14 | 5.26 | 6.76 | 6.26 | 4.66 | 11.7 | -6.44 | 5.66 | -7.74 | 0.46 | -5.24 | -5.54 | -2.64 | -4.74 | 3.96
CCN(CC)CCOc1ccc(/C(=C(/Cl)c2ccccc2)c2ccccc2)cc1 [Clomifene] (top concentration 10000 nM) | 0.62 | -0.08 | -0.48 | -0.08 | 1.62 | 4.32 | -1.78 | 0.82 | 4.62 | 4.12 | 6.52 | -0.18 | -0.28 | -1.08 | -0.28 | 0.32 | 0.72 | 0.72 | 0.32 | 2.32
CO[C@@H](C(=O)N1Cc2[nH]nc(NC(=O)c3ccc(N4CCN(C)CC4)cc3)c2C1)c1ccccc1 [Danusertib] (top concentration 10000 nM) | 13 | 18.5 | 19 | 2.64 | -1.36 | -2.56 | 13.8 | 9.14 | 19.9 | 11.7 | 13.8 | -0.36 | 15.5 | 14.5 | 12.5 | 21.7 | 6.24 | 16.5 | 6.54 | 19.2
CC[C@@](C)(Nc1ccnc(-c2c[nH]c3ncccc23)n1)C(=O)NCC(F)(F)F [Decernotinib] (top concentration 10000 nM) | -3.94 | -3.94 | -3.94 | -3.94 | -2.64 | -3.94 | -3.84 | -1.84 | -3.94 | -3.94 | -1.94 | -3.94 | -3.94 | -3.94 | -3.94 | -3.94 | -3.94 | -3.94 | -3.44 | -2.74
CN1CCN(c2ccc3nc(-c4c(N)c5c(F)cccc5[nH]c4=O)[nH]c3c2)CC1 [Dovitinib] (top concentration 10000 nM) | 6.86 | 0.26 | -0.14 | 1.36 | 0.16 | -0.14 | 6.46 | -0.14 | 0.06 | -0.14 | -0.14 | -0.14 | 0.46 | -0.14 | -0.14 | -0.14 | -0.14 | -0.14 | -0.14 | 10.1
CC(C)(O)CNc1nc(Nc2ccnc(C(F)(F)F)c2)nc(-c2cccc(C(F)(F)F)n2)n1 [Enasidenib] (top concentration 10000 nM) | 2.7 | -0.1 | 2 | 1.7 | 0.4 | -0.8 | -0.8 | 4 | 3.9 | -0.4 | 0.8 | -0.8 | -0.8 | -0.8 | -0.8 | 0.2 | -0.1 | -0.8 | 0.4 | 2.3
CN1CCN(c2ccc(C(=O)Nc3n[nH]c4ccc(Cc5cc(F)cc(F)c5)cc34)c(NC3CCOCC3)c2)CC1 [Entrectinib] (top concentration 1000 nM) | 3.3 | -1.2 | -1.2 | 0.2 | -1.2 | 0 | 3.2 | -1.2 | -1.2 | -0.8 | -1.2 | -1.2 | -0.7 | -1.2 | -1.2 | -1.2 | -1.2 | -1.2 | -1.2 | 3.5

Reference: the supplement of paper PMC8967900
